Test results from article PMC5769417, “Single- and Multiple-Dose Trials to Determine the Pharmacokinetics, Safety, Tolerability, and Sex Effect of Oral Ginsenoside Compound K in Healthy Chinese Volunteers” (Frontiers in Pharmacology, 2018).

Assays:
CYP3A4 = tested on: CYP3A4; parameters: method as in Xiao et al., 2016; conditions: human liver microsomes, human recombinant CYPs; ref Xiao et al., 2016; cited from earlier work
[1] = tested on: healthy Chinese volunteers; assay: Single-dose trial, safety and tolerability (adverse events); assay type: in vivo, human
Protocol: Single-dose pharmacokinetics: The single-dose trial was performed first. Seven doses of CK were given orally under fasting condition: 25, 50, 100, 200, 400, 600, and 800 mg. Eligible subjects (n = 76, male:female = 1:1) were randomized into each dose level (n = 8, 8, 10, 10, 10, 8, 8, respectively) or placebo groups (n = 2 for each dose group) with equal number of men and women in each group. Subjects in each group were admitted to the clinical facility the day before drug administration and received the corresponding dose of the test drug or placebo with 250 ml warm water on the morning of the dosing day. Drinking before and after medication was prohibited for 2 h, but the amount and time of drinking were not strictly controlled at other times. All subjects had standard lunch and dinner (unified light diet) after medication 4 and 10 h.
Safety was evaluated by continuous observation of adverse events (AEs), monitoring of vital signs, ECG, hematology, biochemistry, and urinalysis at baseline, during the trials at the set time points following drug administration, and at follow-up visits after study completion. AEs were classified by their intensity into mild, moderate and severe. Additionally, the AEs were also classified according their relationship to the test drug as positive, probable, possible, remote, or unrelated. The severity of the AEs, as well as their relationship to test drug, was assessed by a qualified physician in the unit. Clinically relevant changes in vital signs, ECG and laboratory parameters were defined as marked abnormalities. ECG were recorded in the semisupine position after a rest of at least 5 min. It is worth noting that all the information, including symptoms and signs after dosing or the medications that the subjects were concomitantly taking must be recorded on the case-report form by investigators. All available data from subjects who received the test drug and placebo were included in the summaries of the safety data and were descriptively analyzed. In addition, the differences between laboratory parameters at baseline and after drug treatment were analyzed to determine whether there were clinical significances.
All the safety data, including vital signs, laboratory indexes and ECG, were descriptively analyzed, and the statistical analyses were conducted to evaluate the effects of the test drug by comparing the differences between before and after drug treatment, between the test drug group and the placebo group and among the different dose groups.

[2] = single-dose trial, 25 mg (n = 8)
[3] = single-dose trial, 50 mg (n = 8)
[4] = single-dose trial, 100 mg (n = 10)
[5] = single-dose trial, 200 mg (n = 10)
[6] = single-dose trial, 400 mg (n = 10)
[7] = single-dose trial, 600 mg (n = 8)
[8] = single-dose trial, 800 mg (n = 8)
[9] = single-dose trial, of the 44 cases of AEs

In the case of `CC(C)=CCC[C@](C)(OC1O[C@H](CO)[C@@H](O)[C@H](O)[C@H]1O)[C@H]1CC[C@]2(C)[C@@H]1[C@H](O)C[C@@H]1[C@@]3(C)CC[C@H](O)C(C)(C)[C@@H]3CC[C@]12C` (stereo partly drawn) [CK, 20-O-beta-D-glucopyranosyl-20(S)-protopanaxadiol], the “inhibition of CYP3A4” value (CYP3A4) is listed as “moderate inhibitor”, the “substrate of CYP3A4” value (CYP3A4) is listed as “substrate” and the “ECG after the drug treatments” value ([1]; both trials) is listed as “none of the subjects had clinically significant abnormalities”. For the same compound, the “intensity of all observed AEs” value ([1]; both trials) was “mild or moderate”, the “serious AEs” value ([1]; both trials) was “no serious AEs reported” and the safety and tolerability ([1]; single dose 25 to 800 mg and multiple doses of 100–400 mg, both trials) was “safe and well-tolerated”. The “AEs after taking the test drug” value ([1]; single-dose trial) was 33 AEs, the “subjects who suffered AEs after taking the test drug” value ([1]; single-dose trial) was 22 subjects and the “Alkaline phosphatase increased (study drug-related AE)” value (“Alkaline phosphatase increased” for short) [1, 2] was 0 number of subjects (%). The “Any AEs (study drug-related)” value [1, 2] was 0 number of subjects (%), the “Bellyache (study drug-related AE)” value [1, 2] was 0 number of subjects (%) and the “Blood white cells increased (study drug-related AE)” value (shortened to “Blood white cells increased”) [1, 2] was 0 number of subjects (%). For the same compound, the “Diarrhea (study drug-related AE)” value [1, 2] was 0 number of subjects (%), the “Direct bilirubin increased (study drug-related AE)” value (“Direct bilirubin increased” for short) [1, 2] was 0 number of subjects (%) and the “Dizziness (study drug-related AE)” value [1, 2] was 0 number of subjects (%). The “Headache (study drug-related AE)” value [1, 2] was 0 number of subjects (%), the “Loss of appetite (study drug-related AE)” value [1, 2] was 0 number of subjects (%) and the “Nausea (study drug-related AE)” value [1, 2] was 0 number of subjects (%). For the same compound, the “Rash (study drug-related AE)” value [1, 2] was 0 number of subjects (%), the “Subcutaneous bleeding (double forearm) (study drug-related AE)” value (shortened to “Subcutaneous bleeding (double forearm)”) [1, 2] was 0 number of subjects (%) and the “Total bilirubin increased (study drug-related AE)” value (“Total bilirubin increased” below) [1, 2] was 0 number of subjects (%). The “Alkaline phosphatase increased” value [1, 3] was 0 number of subjects (%), the “Any AEs (study drug-related)” value [1, 3] was 2 (2.6) number of subjects (%) and the “Bellyache (study drug-related AE)” value [1, 3] was 0 number of subjects (%). The “Blood white cells increased” value [1, 3] was 0 number of subjects (%), the “Diarrhea (study drug-related AE)” value [1, 3] was 0 number of subjects (%) and the “Direct bilirubin increased” value [1, 3] was 2 (2.6) number of subjects (%). The “Dizziness (study drug-related AE)” value [1, 3] was 0 number of subjects (%), the “Headache (study drug-related AE)” value [1, 3] was 0 number of subjects (%) and the “Loss of appetite (study drug-related AE)” value [1, 3] was 0 number of subjects (%). The “Nausea (study drug-related AE)” value [1, 3] was 0 number of subjects (%), the “Rash (study drug-related AE)” value [1, 3] was 0 number of subjects (%) and the “Subcutaneous bleeding (double forearm)” value [1, 3] was 0 number of subjects (%). The “Total bilirubin increased” value [1, 3] was 0 number of subjects (%), the “Alkaline phosphatase increased” value [1, 4] was 0 number of subjects (%) and the “Any AEs (study drug-related)” value [1, 4] was 2 (2.6) number of subjects (%). The “Bellyache (study drug-related AE)” value [1, 4] was 0 number of subjects (%), the “Blood white cells increased” value [1, 4] was 0 number of subjects (%) and the “Diarrhea (study drug-related AE)” value [1, 4] was 0 number of subjects (%). The “Direct bilirubin increased” value [1, 4] was 0 number of subjects (%), the “Dizziness (study drug-related AE)” value [1, 4] was 1 (1.3) number of subjects (%) and the “Headache (study drug-related AE)” value [1, 4] was 1 (1.3) number of subjects (%). For the same compound, the “Loss of appetite (study drug-related AE)” value [1, 4] was 0 number of subjects (%), the “Nausea (study drug-related AE)” value [1, 4] was 0 number of subjects (%) and the “Rash (study drug-related AE)” value [1, 4] was 0 number of subjects (%). For the same compound, the “Subcutaneous bleeding (double forearm)” value [1, 4] was 0 number of subjects (%), the “Total bilirubin increased” value [1, 4] was 0 number of subjects (%) and the “Alkaline phosphatase increased” value [1, 5] was 1 (1.3) number of subjects (%). For the same compound, the “Any AEs (study drug-related)” value [1, 5] was 5 (6.6) number of subjects (%), the “Bellyache (study drug-related AE)” value [1, 5] was 0 number of subjects (%) and the “Blood white cells increased” value [1, 5] was 0 number of subjects (%). The “Diarrhea (study drug-related AE)” value [1, 5] was 2 (2.6) number of subjects (%), the “Direct bilirubin increased” value [1, 5] was 2 (2.6) number of subjects (%) and the “Dizziness (study drug-related AE)” value [1, 5] was 0 number of subjects (%). The “Headache (study drug-related AE)” value [1, 5] was 0 number of subjects (%), the “Loss of appetite (study drug-related AE)” value [1, 5] was 0 number of subjects (%) and the “Nausea (study drug-related AE)” value [1, 5] was 0 number of subjects (%). For the same compound, the “Rash (study drug-related AE)” value [1, 5] was 0 number of subjects (%), the “Subcutaneous bleeding (double forearm)” value [1, 5] was 0 number of subjects (%) and the “Total bilirubin increased” value [1, 5] was 1 (1.3) number of subjects (%). For the same compound, the “Alkaline phosphatase increased” value [1, 6] was 0 number of subjects (%), the “Any AEs (study drug-related)” value [1, 6] was 5 (6.6) number of subjects (%) and the “Bellyache (study drug-related AE)” value [1, 6] was 1 (1.3) number of subjects (%). The “Blood white cells increased” value [1, 6] was 1 (1.3) number of subjects (%), the “Diarrhea (study drug-related AE)” value [1, 6] was 2 (2.6) number of subjects (%) and the “Direct bilirubin increased” value [1, 6] was 1 (1.3) number of subjects (%). The “Dizziness (study drug-related AE)” value [1, 6] was 0 number of subjects (%), the “Headache (study drug-related AE)” value [1, 6] was 1 (1.3) number of subjects (%) and the “Loss of appetite (study drug-related AE)” value [1, 6] was 0 number of subjects (%). The “Nausea (study drug-related AE)” value [1, 6] was 0 number of subjects (%), the “Rash (study drug-related AE)” value [1, 6] was 0 number of subjects (%) and the “Subcutaneous bleeding (double forearm)” value [1, 6] was 0 number of subjects (%). The “Total bilirubin increased” value [1, 6] was 0 number of subjects (%), the “Alkaline phosphatase increased” value [1, 7] was 0 number of subjects (%) and the “Any AEs (study drug-related)” value [1, 7] was 1 (1.3) number of subjects (%). For the same compound, the “Bellyache (study drug-related AE)” value [1, 7] was 0 number of subjects (%), the “Blood white cells increased” value [1, 7] was 0 number of subjects (%) and the “Diarrhea (study drug-related AE)” value [1, 7] was 0 number of subjects (%). For the same compound, the “Direct bilirubin increased” value [1, 7] was 1 (1.3) number of subjects (%), the “Dizziness (study drug-related AE)” value [1, 7] was 0 number of subjects (%) and the “Headache (study drug-related AE)” value [1, 7] was 0 number of subjects (%). For the same compound, the “Loss of appetite (study drug-related AE)” value [1, 7] was 0 number of subjects (%), the “Nausea (study drug-related AE)” value [1, 7] was 0 number of subjects (%) and the “Rash (study drug-related AE)” value [1, 7] was 0 number of subjects (%). For the same compound, the “Subcutaneous bleeding (double forearm)” value [1, 7] was 0 number of subjects (%), the “Total bilirubin increased” value [1, 7] was 0 number of subjects (%) and the “Alkaline phosphatase increased” value [1, 8] was 0 number of subjects (%). For the same compound, the “Any AEs (study drug-related)” value [1, 8] was 3 (3.9) number of subjects (%), the “Bellyache (study drug-related AE)” value [1, 8] was 1 (1.3) number of subjects (%) and the “Blood white cells increased” value [1, 8] was 0 number of subjects (%). For the same compound, the “Diarrhea (study drug-related AE)” value [1, 8] was 1 (1.3) number of subjects (%), the “Direct bilirubin increased” value [1, 8] was 0 number of subjects (%) and the “Dizziness (study drug-related AE)” value [1, 8] was 0 number of subjects (%). The “Headache (study drug-related AE)” value [1, 8] was 0 number of subjects (%), the “Loss of appetite (study drug-related AE)” value [1, 8] was 0 number of subjects (%) and the “Nausea (study drug-related AE)” value [1, 8] was 0 number of subjects (%). For the same compound, the “Rash (study drug-related AE)” value [1, 8] was 1 (1.3) number of subjects (%), the “Subcutaneous bleeding (double forearm)” value [1, 8] was 0 number of subjects (%) and the “Total bilirubin increased” value [1, 8] was 0 number of subjects (%). For the same compound, the “AEs possibly related to CK” value [1, 9] was 7 cases and the “AEs probably related to the test drug” value [1, 9] was 13 cases.
